Data reported in US20080171662A1, “Aminocarbonyl-Substituted Thiensulfonylamino(Thio)Carbonyl-Triazolin(Ethi)Ones, Processes For Their Preparation And Their Use” (priority 2004, published 2008).

CCOc1nn(C(=O)NS(=O)(=O)c2c(C(=O)N(C)C)csc2C)c(=O)n1C [Example 1, 5-ethoxy-4-methyl-2-[(4-dimethylaminocarbonyl-2-methylthien-3-yl)sulfonylaminocarbonyl]-2,4-dihydro-3H-1,2,4-triazol-3-one]
melting point: 162 °C
